# Results taken from PubChem BioAssay (NCI).
# Values joined by “and” are separate entries in the source; they are usually repeats but may differ in a detail not shown here. Equal values may be shown once.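 Five compound concentrations were applied to cells in 96-well plates for 48 hours; endpoints were derived by simple linear interpolation of the resulting dose-response curve. GI50: concentration for 50% inhibition of growth. TGI denotes the concentration required for complete inhibition of growth.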
# Experiments:
# Test in all cases: DTP human tumour cell line panel, 48 h
# SNB-19 CNS = tested on: SNB-19 CNS
# ACHN renal = tested on: ACHN renal
# EKVX NSCLC = tested on: EKVX NSCLC
# COLO 205 colon = tested on: COLO 205 colon
# SNB-75 CNS = tested on: SNB-75 CNS
# SR leukemia = tested on: SR leukemia
# HS 578T breast = tested on: HS 578T breast
# MDA-MB-435 = tested on: MDA-MB-435
# NCI-H460 lung = tested on: NCI-H460 lung
# SF-539 CNS = tested on: SF-539 CNS
structure (smiles),measurement,setting,value
CCN(CC)c1ccc2c(c1)Oc1ccc(N(CC)CC)cc1C21Oc2ccccc2-c2c1c1ccccc1n2CC (centres undefined),TGI,SNB-19 CNS,> 100 µM
same,TGI,ACHN renal,> 100 µM
same,TGI,EKVX NSCLC,> 100 µM
same,TGI,COLO 205 colon,> 100 µM
same,TGI,SNB-75 CNS,> 100 µM
same,TGI,SR leukemia,> 100 µM
N#CC1=C(/N=C/c2ccccc2)Oc2c(ccc3ccccc23)C1c1ccccc1 (centres undefined),GI50,HS 578T breast,377 nM
same,TGI,HS 578T breast,> 100 µM
same,GI50,SNB-19 CNS,702 nM
same,TGI,SNB-19 CNS,> 100 µM
same,GI50,ACHN renal,0.591 µM
same,TGI,ACHN renal,> 100 µM
same,GI50,EKVX NSCLC,5130 nM
same,TGI,EKVX NSCLC,> 100 µM
same,GI50,COLO 205 colon,594 nM
same,GI50,MDA-MB-435,227 nM
same,TGI,MDA-MB-435,573 nM
same,GI50,NCI-H460 lung,386 nM
same,TGI,NCI-H460 lung,> 39.3 µM
same,GI50,SF-539 CNS,335 nM
same,TGI,SF-539 CNS,2.06 µM
same,GI50,SR leukemia,409 nM
same,TGI,SR leukemia,> 100 µM
Cc1ccc(NC(=O)CC2C(=O)Nc3ccccc3S2(=O)=O)c(C)c1 (centres undefined),TGI,SNB-19 CNS,32.6 µM
same,TGI,ACHN renal,39.1 µM
same,TGI,EKVX NSCLC,> 100 µM
same,TGI,SNB-75 CNS,38.6 µM
same,TGI,NCI-H460 lung,33.8 µM
same,TGI,SF-539 CNS,30.8 µM
same,TGI,SR leukemia,19.1 µM
COc1cc2c(cc1OCCCCN1CCN(C(=S)SCCC(C#N)(c3ccccc3)c3ccccc3)CC1)N=C[C@@H]1CCCN1C2=O,GI50,SNB-19 CNS,1670 nM
same,TGI,SNB-19 CNS,3.98 µM
same,GI50,EKVX NSCLC,1880 nM
same,TGI,EKVX NSCLC,5.74 µM
same,GI50,COLO 205 colon,1400 nM
same,TGI,COLO 205 colon,5.66 µM
same,GI50,SNB-75 CNS,1640 nM
same,TGI,SNB-75 CNS,3.68 µM
same,GI50,MDA-MB-435,1040 nM
same,TGI,MDA-MB-435,2810 nM
same,GI50,NCI-H460 lung,1250 nM
same,TGI,NCI-H460 lung,4.02 µM
same,GI50,SF-539 CNS,1690 nM
same,TGI,SF-539 CNS,3.27 µM
COc1cc2c(cc1OC)-c1ncc3c(OC)c(OC)c(OC)cc3c1C2,GI50,SNB-19 CNS,23000 nM
same,TGI,SNB-19 CNS,50 µM
same,GI50,ACHN renal,16.7 µM
same,TGI,ACHN renal,43.8 µM
same,GI50,COLO 205 colon,> 100000 nM
same,TGI,COLO 205 colon,> 100 µM
same,GI50,SNB-75 CNS,28900 nM
same,TGI,SNB-75 CNS,> 100 µM
same,GI50,NCI-H460 lung,15300 nM
same,TGI,NCI-H460 lung,61.3 µM
same,GI50,SR leukemia,609 nM
same,TGI,SR leukemia,2.47 µM
Cc1nc(C(=O)O)c2ccccc2n1,TGI,SNB-19 CNS,> 100 µM
same,TGI,ACHN renal,> 100 µM
same,TGI,COLO 205 colon,> 100 µM
same,TGI,SNB-75 CNS,> 100 µM
same,TGI,NCI-H460 lung,> 100 µM
same,TGI,SF-539 CNS,> 100 µM
same,TGI,SR leukemia,> 100 µM
CC(C)(Br)C(=O)C(Br)Br,TGI,HS 578T breast,19.9 µM
same,TGI,SNB-19 CNS,33.9 µM and 59.4 µM
same,GI50,ACHN renal,5.34 µM
same,TGI,ACHN renal,22.5 µM and 9.58 µM
same,GI50,EKVX NSCLC,5230 nM
same,TGI,EKVX NSCLC,26.8 µM and 9.94 µM
same,GI50,COLO 205 colon,4060 nM
same,TGI,COLO 205 colon,7.04 µM and 8.3 µM
same,GI50,SNB-75 CNS,5040 nM
same,TGI,SNB-75 CNS,26.7 µM and 9.38 µM
same,TGI,MDA-MB-435,9980 nM
same,GI50,NCI-H460 lung,5750 nM
same,TGI,NCI-H460 lung,34.4 µM and 11.4 µM
same,GI50,SF-539 CNS,5420 nM
same,TGI,SF-539 CNS,> 48.2 µM and 9.97 µM
NC(=O)NNC(=O)NC12CC3CC(CC(C3)C1)C2,TGI,SNB-19 CNS,> 100 µM
same,TGI,ACHN renal,> 100 µM
same,TGI,EKVX NSCLC,> 100 µM
same,TGI,COLO 205 colon,> 100 µM
same,TGI,SNB-75 CNS,> 100 µM
same,TGI,NCI-H460 lung,> 100 µM
same,TGI,SF-539 CNS,> 100 µM
Cc1ccc(C)c(N2C(=O)C(=O)C(c3nc4ccccc4s3)/C(=N/NC(=O)NN)C2=O)c1 (centres undefined),TGI,SNB-19 CNS,> 100 µM
same,TGI,ACHN renal,> 100 µM
same,TGI,EKVX NSCLC,> 100 µM
same,TGI,COLO 205 colon,> 100 µM
same,TGI,SNB-75 CNS,> 100 µM
same,TGI,NCI-H460 lung,> 100 µM
same,TGI,SF-539 CNS,> 100 µM
same,TGI,SR leukemia,> 100 µM
O=C1Nc2ccccc2N=CC1NC(=O)C(c1ccccc1)c1ccccc1 (centres undefined),TGI,SNB-19 CNS,> 100 µM
same,TGI,ACHN renal,> 100 µM
same,TGI,EKVX NSCLC,> 100 µM
same,TGI,COLO 205 colon,> 100 µM
same,TGI,SNB-75 CNS,> 100 µM
same,TGI,NCI-H460 lung,> 100 µM
same,TGI,SF-539 CNS,> 100 µM
C=C1CCC2[C@@H](CCC3[C@]2(C)CCC[C@]3(C)C(=O)OC)C1CC=O (some centres undefined),GI50,SNB-19 CNS,18200 nM
same,TGI,SNB-19 CNS,33.1 µM
same,TGI,ACHN renal,30 µM
same,TGI,EKVX NSCLC,36 µM
same,TGI,COLO 205 colon,35.5 µM
same,TGI,NCI-H460 lung,31.7 µM
same,TGI,SF-539 CNS,31.1 µM
COc1ccc(NC(=O)C2CCC(CNS(=O)(=O)c3ccccc3)CC2)cc1OC (centres undefined),GI50,HS 578T breast,76500 nM
same,TGI,HS 578T breast,> 100 µM
same,GI50,ACHN renal,> 100 µM
same,TGI,ACHN renal,> 100 µM
same,GI50,EKVX NSCLC,> 100000 nM
same,TGI,EKVX NSCLC,> 100 µM
same,GI50,MDA-MB-435,> 100000 nM
same,TGI,MDA-MB-435,> 100000 nM
same,GI50,NCI-H460 lung,> 100000 nM
same,TGI,NCI-H460 lung,> 100 µM
same,GI50,SF-539 CNS,> 100000 nM
same,TGI,SF-539 CNS,> 100 µM
same,GI50,SR leukemia,542 nM
same,TGI,SR leukemia,> 100 µM
O=C(CC1SC(=Nc2ccccc2Cl)NC1=O)Nc1ccc(Cl)cc1Cl (centres undefined),TGI,SNB-19 CNS,> 100 µM
same,TGI,ACHN renal,> 100 µM
same,TGI,EKVX NSCLC,> 100 µM
same,TGI,COLO 205 colon,> 100 µM
same,TGI,SNB-75 CNS,> 100 µM
same,TGI,NCI-H460 lung,> 100 µM
O=C(O)/C=C/c1nc2ccccc2c(=O)o1,TGI,SNB-19 CNS,> 100 µM
same,TGI,ACHN renal,> 100 µM
same,TGI,EKVX NSCLC,> 100 µM
same,TGI,COLO 205 colon,> 100 µM
same,TGI,SNB-75 CNS,> 100 µM
same,TGI,SF-539 CNS,> 100 µM
C/C(=C\c1cnc(C)s1)[C@@H]1C[C@@H]2O[C@@H]2CCC[C@H](C)[C@H](O)[C@@H](C)C(=O)C(C)(C)[C@@H](O)CC(=O)O1,GI50,HS 578T breast,11.7 nM
same,TGI,HS 578T breast,> 100 µM
same,GI50,SNB-19 CNS,< 10 nM
same,TGI,SNB-19 CNS,> 100 µM
same,GI50,ACHN renal,< 0.01 µM
same,TGI,ACHN renal,> 100 µM
same,GI50,EKVX NSCLC,12.7 nM
same,TGI,EKVX NSCLC,> 100 µM
same,GI50,COLO 205 colon,< 10 nM
same,TGI,COLO 205 colon,0.0304 µM
same,GI50,SNB-75 CNS,< 10 nM
same,GI50,NCI-H460 lung,< 10 nM
same,TGI,NCI-H460 lung,> 100 µM
same,GI50,SF-539 CNS,< 10 nM
same,TGI,SF-539 CNS,> 100 µM
same,GI50,SR leukemia,< 10 nM
same,TGI,SR leukemia,> 100 µM
COC(=O)[C@@]1(C(C)CC(=O)O)CCCCC1=O (some centres undefined),TGI,SNB-19 CNS,> 100 µM
same,TGI,ACHN renal,> 100 µM
same,TGI,EKVX NSCLC,> 100 µM
same,TGI,COLO 205 colon,> 100 µM
same,TGI,SNB-75 CNS,> 100 µM
same,TGI,NCI-H460 lung,> 100 µM
same,TGI,SF-539 CNS,> 100 µM
same,TGI,SR leukemia,> 100 µM
O=S(=O)(/C=C/C(=C/c1ccccc1)S(=O)(=O)c1ccccc1)c1ccccc1,TGI,SNB-19 CNS,3.18 µM
same,TGI,ACHN renal,3.14 µM
same,TGI,EKVX NSCLC,3.15 µM
same,TGI,COLO 205 colon,4.31 µM
same,TGI,SNB-75 CNS,3.43 µM
same,TGI,NCI-H460 lung,3.45 µM
same,TGI,SF-539 CNS,3.15 µM
same,TGI,SR leukemia,4.41 µM
COc1ccc(CCC2c3cc(OC)c(OC)cc3CCN2C)cc1OC (centres undefined),TGI,SNB-19 CNS,> 100 µM
same,TGI,ACHN renal,> 100 µM
same,TGI,EKVX NSCLC,> 100 µM
same,TGI,COLO 205 colon,> 100 µM
same,TGI,SNB-75 CNS,> 100 µM
same,TGI,NCI-H460 lung,> 100 µM
same,TGI,SF-539 CNS,> 100 µM
same,TGI,SR leukemia,> 100 µM
C#CCNC(=O)[C@H](CC)[C@H]1CC[C@H](C)[C@H]([C@@H](C)[C@H](O)[C@H](C)C(=O)[C@H](CC)C2O[C@]3(C=CC(=O)[C@]4(CC[C@@](C)([C@H]5CC[C@](O)(CC)[C@H](C)O5)O4)O3)[C@H](C)C[C@@H]2C)O1 (some centres undefined),GI50,HS 578T breast,2060 nM
same,TGI,HS 578T breast,6.71 µM
same,GI50,SNB-19 CNS,2360 nM
same,TGI,SNB-19 CNS,7.96 µM
same,GI50,ACHN renal,2.94 µM
same,TGI,ACHN renal,14.6 µM
same,GI50,EKVX NSCLC,2590 nM
same,TGI,EKVX NSCLC,> 100 µM
same,GI50,COLO 205 colon,1840 nM
same,TGI,COLO 205 colon,3.52 µM
same,GI50,SNB-75 CNS,1390 nM
same,TGI,SNB-75 CNS,3.36 µM
same,GI50,NCI-H460 lung,2550 nM
same,TGI,NCI-H460 lung,6.94 µM
same,GI50,SF-539 CNS,1750 nM
same,TGI,SF-539 CNS,3.36 µM
same,GI50,SR leukemia,1610 nM
same,TGI,SR leukemia,5.37 µM
C=CNC(=O)NC(=O)CSc1nnc(-c2ccccc2NC(=O)C(F)(F)F)c(=O)[nH]1,TGI,SNB-19 CNS,> 100 µM
same,TGI,EKVX NSCLC,> 100 µM
same,TGI,COLO 205 colon,> 100 µM
same,TGI,SNB-75 CNS,0.968 µM
same,TGI,NCI-H460 lung,> 100 µM
same,TGI,SF-539 CNS,> 100 µM
same,TGI,SR leukemia,> 100 µM
CC1(c2ccccc2Cl)C(C#N)C(=O)NC(=O)C1C#N (centres undefined),TGI,SNB-19 CNS,92.8 µM
same,TGI,ACHN renal,> 100 µM
same,TGI,EKVX NSCLC,> 100 µM
same,TGI,COLO 205 colon,> 100 µM
same,TGI,SNB-75 CNS,75.4 µM
same,TGI,NCI-H460 lung,> 100 µM
same,TGI,SF-539 CNS,> 100 µM
Nc1c([N+](=O)[O-])nc(Cl)c2nncn12,TGI,SNB-19 CNS,> 100 µM
same,TGI,ACHN renal,> 100 µM
same,TGI,EKVX NSCLC,> 100 µM
same,TGI,COLO 205 colon,> 65 µM
same,TGI,SNB-75 CNS,> 77.7 µM
same,TGI,NCI-H460 lung,> 100 µM
same,TGI,SF-539 CNS,> 100 µM
same,TGI,SR leukemia,41.9 µM
